Results from paper PMC6934184, “Selective DNA-PKcs inhibition extends the therapeutic index of localized radiotherapy and chemotherapy” (The Journal of Clinical Investigation, 2019).

Target: T1, PIK3C3 (hVPS34) (Homo sapiens, UniProt Q8NEB9)
T1 construct: purchased Thermo Fisher Scientific (Life Technologies) SelectScreen
Test: SelectScreen Adapta
Assay type: biochemical
Conditions: ATP Km app
Method in brief: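 NU5455 was profiled across the SelectScreen Broad panel of kinase activity and binding assays. Z'LYTE reactions such as CSF1R ran at apparent Km ATP, while the Adapta CAMK1 assay used ATP listed as 10. Values are given as percent.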

T1 sequence (Q8NEB9 whole entry): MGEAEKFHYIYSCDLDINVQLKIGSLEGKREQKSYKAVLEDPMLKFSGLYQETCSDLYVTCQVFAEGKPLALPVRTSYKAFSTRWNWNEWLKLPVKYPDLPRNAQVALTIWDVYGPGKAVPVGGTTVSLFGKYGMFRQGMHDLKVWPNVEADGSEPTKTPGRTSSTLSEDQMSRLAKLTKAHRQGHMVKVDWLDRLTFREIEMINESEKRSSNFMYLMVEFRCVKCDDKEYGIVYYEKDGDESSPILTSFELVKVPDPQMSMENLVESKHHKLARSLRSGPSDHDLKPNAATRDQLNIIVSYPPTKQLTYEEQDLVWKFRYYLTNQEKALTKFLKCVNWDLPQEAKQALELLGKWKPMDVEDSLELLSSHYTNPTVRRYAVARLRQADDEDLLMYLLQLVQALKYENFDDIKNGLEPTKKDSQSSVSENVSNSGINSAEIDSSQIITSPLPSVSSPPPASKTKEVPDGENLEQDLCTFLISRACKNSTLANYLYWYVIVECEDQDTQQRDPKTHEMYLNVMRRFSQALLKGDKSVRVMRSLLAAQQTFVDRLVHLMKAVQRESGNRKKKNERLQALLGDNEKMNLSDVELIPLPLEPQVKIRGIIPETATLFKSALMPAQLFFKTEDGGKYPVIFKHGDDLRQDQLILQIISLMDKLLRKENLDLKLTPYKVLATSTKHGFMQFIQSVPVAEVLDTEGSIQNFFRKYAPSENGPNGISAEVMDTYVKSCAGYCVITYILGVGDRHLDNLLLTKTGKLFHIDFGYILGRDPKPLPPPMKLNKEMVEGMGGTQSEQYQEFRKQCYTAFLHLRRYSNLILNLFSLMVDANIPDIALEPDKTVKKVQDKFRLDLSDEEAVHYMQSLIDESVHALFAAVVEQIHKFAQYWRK

## CN(C(=O)CN1CCOCC1)c1ccc2sc3c(-c4cccc5c(=O)cc(N6CC7CCC(C6)O7)oc45)cccc3c2c1 [NU5455]
1 µM
  % inhibition: 86%
  inhibition at 1 µM: 85.9%
